Measurements taken from patent US6488967B1, “Gastric acid secretion” (Phytopharm PLC, priority 1999, dated 2002).
Where “and” joins values, the source holds several entries; their conditions need not be identical. Equal entries are not always repeated. Entries after “also recorded” stand apart in the source; their conditions may differ.

Legend:
[1] = test system: aspirin-induced damage to the stomach; assay: aspirin-induced damage to the stomach in the rat; format: in vivo; parameters: key to Gastric damage score (individual rat) / Gastric damage score, Mean: small haemorrhage 1, large haemorrhage 2, small ulcer 3, large ulcer 4 points; settings: for average reduction in gastric damage: vs control group; for Gastric damage score, Mean / Gastric damage score (individual rat): aspirin about 600 mg/kg orally, after 5 hours; for Gastric damage score, Mean: mean of eight rats; for Gastric damage score (individual rat): single animals
Method: Three groups each containing eight rats were given aspirin in 0.5% CMC orally at a dose of about 600 mg/kg (1.0 ml of 60 mg/ml). The first group (the control group) was additionally given 0.5% CMC. The second group was given compound P57AS3 at a dose rate of 100 mg/kg; and the third group (comparative group) was given cimetidine at a dose rate of 20 mg/kg. […] Damage was assessed on a scale in which each small haemorrhage scored one point; each large haemorrhage scored two points; each small ulcer scored three points; and each large ulcer scored four points.

[2] = test system: isolated guinea pig gallbladder; assay: isolated tissue: resting tension of gallbladder
Method: (§1) Purified P57AS3 was examined for binding affinity to a variety of receptors, channels, and uptake sites in vitro. […], In isolated tissue studies, P57AS3 at concentrations ≦10 μM had no effect on the rate of spontaneously beating guinea pig right atria or on the force of contraction of electrically stimulated left atria. […] P57AS3 had no effect on resting tension of isolated guinea pig gallbladder, ileum or trachea, or on CCK octapeptide-induced contractions of the gallbladder (CCK-A receptor mediated), histamine induced contractions of the guinea pig ileum (H1 receptor mediated), or acetylcholine-induced contractions of the guinea pig ileum (M3 receptor mediated).

[3] = test system: spontaneously beating guinea pig right atria; assay: isolated tissue: spontaneously beating right atria; settings: concentrations ≦10 μM
Method: as §1

CCK-A receptor = target: T1, CCK-A receptor (Cavia porcellus, UniProt Q63931); assay: CCK octapeptide-induced contractions of the gallbladder; parameters: species or system guinea pig; settings: CCK-A receptor mediated
T1 construct: P57AS3 had no effect on resting tension of isolated guinea pig gallbladder, ileum or trachea; from tissue; host or cells: isolated guinea pig gallbladder
T1 sequence (Q63931 1-430): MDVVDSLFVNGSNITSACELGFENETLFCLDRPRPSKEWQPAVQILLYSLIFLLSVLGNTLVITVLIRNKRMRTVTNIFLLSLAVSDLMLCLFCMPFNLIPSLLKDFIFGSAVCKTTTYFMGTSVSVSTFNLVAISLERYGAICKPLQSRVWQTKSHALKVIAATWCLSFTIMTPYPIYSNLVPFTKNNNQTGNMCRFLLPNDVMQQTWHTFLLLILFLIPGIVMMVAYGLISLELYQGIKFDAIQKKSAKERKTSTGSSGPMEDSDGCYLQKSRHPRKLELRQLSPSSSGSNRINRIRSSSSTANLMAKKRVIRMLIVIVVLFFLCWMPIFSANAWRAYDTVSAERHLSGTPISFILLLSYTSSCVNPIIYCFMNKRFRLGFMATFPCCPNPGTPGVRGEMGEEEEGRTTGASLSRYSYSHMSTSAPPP
Method: as §1

[4] = test system: isolated guinea pig ileum; assay: isolated tissue: resting tension of ileum
Method: as §1

gastric acid secretion = gastric acid secretion in the pylorus-ligated rat; format: in vivo
Method: The effect of both the spray dried extract (sap from Hoodia gordonii)-referred to hereinafter as […]-and the purified compound P57AS3 were examined for effects on gastric acid secretion in the pylorus-ligated rat. Male Sprague-Dawley derived CD rats, 175-230 g, were used. On the day before the test, rats were outfitted with stainless steel tail cups to prevent coprophagy, housed individually with water allowed ad lib, and fasted overnight (18 hr). In one test the […] (5 or 50 mg/kg), or cimetidine (10 mg/kg) or vehicle (water) was orally administered to the rats immediately before fasting. Water was removed 30 minutes prior to ligation on the morning of the test. […] In a second experiment, purified compound P57AS3 was administered intraduodenally (i.d.) at 1 or 10 mg/kg at the time of the pylorus ligation. In this experiment with intraduodenal administration of P57AS3, vehicle (DMSO), cimetidine (10 mg/kg) or P57AS3 (1 or 10 mg/kg) was administered immediately after ligation. The incisions were then closed with staples. In the experiments with subcutaneous administration of P57, vehicle (DMSO), cimetidine (10 mg/kg) or P57, 10 or 30 mg/kg were injected subcutaneously in the nape of the neck immediately after the incisions were closed. Two hours after ligation, the rats were killed, the contents of each stomach collected and cleaned by centrifugation (30 minutes at 2000×g), and the volume of gastric fluid in each stomach was determined. Using a Radiometer pH meter and autotitrator, the pH and acid concentration of each gastric sample was determined by titration to pH 7 with 0.1N NaOH. Results are expressed as μeq/hr/100 g (body weight) and % vehicle control.

[5] = test system: electrically stimulated left atria; assay: isolated tissue: electrically stimulated left atria; parameters: species or system guinea pig
Method: as §1

H1 receptor = target: T2, H1 receptor (Cavia porcellus, UniProt P31389); assay: histamine induced contractions of the guinea pig ileum; settings: H1 receptor mediated
T2 construct: histamine induced contractions of the guinea pig ileum (H1 receptor mediated); from tissue; host or cells: isolated guinea pig ileum
Method: as §1

[6] = test system: isolated guinea pig trachea; assay: isolated tissue: resting tension of trachea
Method: as §1

M3 receptor [7] = assay: carbachol-induced contractions of the guinea pig trachea; settings: M3 receptor mediated, concentrations ≧1 μM
Method: as §1

M3 receptor [8] = target: T3, M3 receptor (Cavia porcellus, UniProt H0W1Z3); assay: acetylcholine-induced contractions of the guinea pig ileum; settings: M3 receptor mediated
T3 construct: acetylcholine-induced contractions of the guinea pig ileum (M3 receptor mediated); from tissue; host or cells: isolated guinea pig ileum
Method: as §1

[9] = 10 mg/kg sc, 1 of 3 experiments

T2 sequence (P31389 whole entry): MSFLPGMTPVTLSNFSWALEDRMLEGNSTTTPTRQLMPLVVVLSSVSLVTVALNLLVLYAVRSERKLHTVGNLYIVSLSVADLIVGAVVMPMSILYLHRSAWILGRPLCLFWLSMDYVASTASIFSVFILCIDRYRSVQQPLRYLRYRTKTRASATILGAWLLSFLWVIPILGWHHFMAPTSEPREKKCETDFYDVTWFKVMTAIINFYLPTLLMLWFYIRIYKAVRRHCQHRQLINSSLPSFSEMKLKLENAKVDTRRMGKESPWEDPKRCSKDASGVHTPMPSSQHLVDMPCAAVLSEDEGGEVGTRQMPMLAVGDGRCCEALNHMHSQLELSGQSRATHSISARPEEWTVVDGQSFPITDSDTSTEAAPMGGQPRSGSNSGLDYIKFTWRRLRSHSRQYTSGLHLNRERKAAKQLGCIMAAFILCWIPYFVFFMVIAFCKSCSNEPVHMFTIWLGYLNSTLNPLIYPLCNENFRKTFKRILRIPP
T3 sequence (H0W1Z3 1-590): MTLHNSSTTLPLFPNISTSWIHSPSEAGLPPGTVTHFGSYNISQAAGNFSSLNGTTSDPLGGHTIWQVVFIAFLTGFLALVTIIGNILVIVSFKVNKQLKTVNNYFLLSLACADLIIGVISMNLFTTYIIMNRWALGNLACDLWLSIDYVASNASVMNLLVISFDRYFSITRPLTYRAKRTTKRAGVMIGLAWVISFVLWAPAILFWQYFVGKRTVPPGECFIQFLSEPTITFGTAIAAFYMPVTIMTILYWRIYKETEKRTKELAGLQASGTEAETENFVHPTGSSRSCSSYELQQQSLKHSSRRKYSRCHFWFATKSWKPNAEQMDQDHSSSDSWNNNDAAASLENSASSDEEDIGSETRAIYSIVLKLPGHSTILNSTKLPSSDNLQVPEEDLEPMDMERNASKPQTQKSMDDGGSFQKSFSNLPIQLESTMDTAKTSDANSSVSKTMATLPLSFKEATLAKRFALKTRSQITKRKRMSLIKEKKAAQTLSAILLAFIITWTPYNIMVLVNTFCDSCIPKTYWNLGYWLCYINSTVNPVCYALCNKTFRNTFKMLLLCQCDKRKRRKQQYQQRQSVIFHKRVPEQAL

CN/C(=N/CCSCc1nc[nH]c1C)NC#N [Cimetidine, cimetidine, reference compound]
average reduction in gastric damage ([1]; 20 mg/kg): 93.2% | Gastric damage score, Mean ([1]; oral 20 mg/kg): 0.50 | Gastric damage score (individual rat) ([1]; oral 20 mg/kg): 0 (7×) and 4

C/C=C(\C)C(=O)O[C@@H]1C[C@H]2[C@@H](CC=C3C[C@@H](O[C@H]4C[C@H](OC)[C@H](O[C@H]5C[C@H](OC)[C@H](O[C@@H]6O[C@H](C)[C@@H](O)[C@H](OC)[C@H]6O)[C@@H](C)O5)[C@@H](C)O4)CC[C@@]32C)[C@@]2(O)CC[C@H](C(C)=O)[C@@]12C [P57AS3, 3-O-[-β-D-thevetopyranosyl-(1→4)-β-D-cymaropyranosyl-(1→4)-β-D-cymaropyranosyl]-12β-O-tigloyloxy-14-hydroxy-14β-pregn-5-en-20-one]
average reduction in gastric damage ([1]; 100 mg/kg): 91.5% | Gastric damage score, Mean ([1]; oral 100 mg/kg): 0.63 | Gastric damage score (individual rat) ([1]; oral 100 mg/kg): 0 (6×) and 3 and 2 | effect on resting tension of gallbladder [2]: no effect | effect on the rate of spontaneously beating right atria [3]: no effect | effect on CCK octapeptide-induced contractions of the gallbladder (CCK-A receptor): no effect | effect on resting tension of ileum [4]: no effect | effect on gastric acid secretion (gastric acid secretion; 1 mg/kg i.d. at the time of pylorus ligation): no effect | decrease of acid secretion (acid output) (gastric acid secretion; 10 mg/kg i.d. at the time of pylorus ligation): 88% | effect on gastric acid secretion (gastric acid secretion; [9]): significant decrease | reduction of gastric acid secretion (gastric acid secretion; [9]): 43% | effect on gastric acid output (gastric acid secretion; 10 mg/kg sc, 2 of 3 experiments): not significantly different from vehicle-treated controls; also recorded: no effect | effect on gastric acid output (gastric acid secretion; 30 mg/kg sc, one experiment): not significantly different from vehicle-treated controls; also recorded: no effect | Acid Output % Control mean ± sd (gastric acid secretion; Exp. II, 1 mg/kg id): 109.0 ± 37.8 % Control | Acid Output % Control mean ± sd (gastric acid secretion; Exp. II, 10 mg/kg id): 12.4 ± 1.1 % Control | Acid Output % Control mean ± sd (gastric acid secretion; Exp. III, 10 mg/kg sc): 48.9 ± 29.2 % Control | Acid Output % Control mean ± sd (gastric acid secretion; Exp. IV, 10 mg/kg sc): 74.0 ± 38.0 % Control | Acid Output % Control mean ± sd (gastric acid secretion; Exp. V, 10 mg/kg sc): *57.1 ± 19.8 % Control | Acid Output % Control mean ± sd (gastric acid secretion; Exp. VI, 30 mg/kg sc): 63.7 ± 17.3 % Control | effect on basal tension of electrically stimulated left atria ([5]; concentrations of 1 μM and higher): intermittent and transient elevations | effect on the force of contraction of electrically stimulated left atria ([5]; concentrations ≦10 μM): no effect | effect on histamine induced contractions of the ileum (H1 receptor): no effect | effect on resting tension of trachea [6]: no effect | effect on carbachol-induced contractions of the trachea (M3 receptor [7]): noncompetitively inhibited | effect on acetylcholine-induced contractions of the ileum (M3 receptor [8]): no effect
